# Laboratory results: patent publication US5135955A, “Propanamine derivatives” (Eli Lilly and Company, priority 1989, dated 1992)
# Structures can show the parent of a compound that is named as a salt.
# Tested on: thromboplastin clotting time in human plasma
# Assay: prothrombin time test (thromboplastin clotting time in human plasma)
# Assay type: biochemical
# Conditions: for plasma prothrombin time: 37° C., human plasma
# Procedure: Briefly, to 0.1 ml of each of human plasma, normal saline and thromboplastin was added 0.03 ml of the test compound of the present invention (2 mg/ml in 50 percent methanol). The clotting time was measured at 37° C. with a Fibrometer.
# ^a Expressed in seconds
# ^b Concentration of compound tested in micrograms per milliliter of […]
# [1] = 180 micrograms per milliliter of plasma
# [2] = 45 micrograms per milliliter of plasma
# [3] = 90 micrograms per milliliter of plasma
# [4] = 22 micrograms per milliliter of plasma
# [5] = 11 micrograms per milliliter of plasma
SMILES,plasma prothrombin time [1] [s],plasma prothrombin time [2] [s],plasma prothrombin time [3] [s],other results
"CCCCCCCCOc1ccc(CC(CN)c2ccc(-c3ccccc3)cc2)cc1 (racemic) [Example 11, (±)-β-[[4-(Octyloxy)phenyl]methyl][1,1'-biphenyl-4-ethanamine hydrochloride]",20,–,–,–
"CCCCC(CC)COc1ccc(CC(CN)c2ccccc2)cc1.Cl (stereo not drawn) [Example 3, 4-[(2-Ethylhexyl)oxy]-β-phenylbenzenepropanamine hydrochloride]",–,–,–,prothrombin time (28 micrograms per ml): 16 s; prothrombin time (69 micrograms per ml): 25 s; prothrombin time (139 micrograms per ml): 80 s
"CCCCCCCOc1ccc(CC(CN)c2ccccc2)cc1.Cl (stereo not drawn) [Example 5, 4-(Heptyloxy)-β-phenylbenzenepropanamine hydrochloride]",190,25,53,–
"Cl.NCC(Cc1ccc(-c2ccccc2)cc1)c1ccccc1 (stereo not drawn) [Example 7, β-Phenyl[1,1'-biphenyl]-4-propanamine hydrochloride]",> 300,36,200,plasma prothrombin time [4]: 25 s
"COc1ccc(C(CN)Cc2ccc(-c3ccccc3)cc2)cc1OC (stereo not drawn) [Example 8, β-(3,4-Dimethoxy)phenyl[1,1'-biphenyl]-4-propanamine hydrochloride]",130,23,45,–
"COc1ccc(C(CN)Cc2ccc(-c3ccccc3)cc2)cc1 (stereo not drawn) [Example 9, β-(4-Methoxy)phenyl[1,1'-biphenyl]-4-propanamine]",25,–,–,–
"CCCCCCOc1ccc(CC(CN)c2ccc3ccccc3c2)cc1.Cl (stereo not drawn) [Example 10, β-[[4-(Hexyloxy)phenyl]methyl]-2-naphthaleneethanamine hydrochloride]",60,–,–,–
"CCCCCOc1ccc(CC(CN)c2ccc(-c3ccccc3)cc2)cc1.Cl (stereo not drawn) [Example 12, β-[[4-(Pentyloxy)phenyl]methyl][1,1'-biphenyl]-4-ethanamine hydrochloride]",75,21,33,–
"CCCCCCCOc1ccc(CC(CN)c2ccc(C(CN)Cc3ccc(OCCCCCCC)cc3)cc2)cc1.Cl.Cl (stereo not drawn) [Example 13, β,β'-Bis[[4-(heptyloxy)phenyl]methyl]-1,4-benzenediethanamine dihydrochloride]",200,–,–,–
"CC(C)c1ccc(CC(CN)c2ccccc2)cc1.Cl (stereo not drawn) [Example 14, 4-(1-Methylethyl)-β-phenylbenzenepropanamine hydrochloride]",101,–,–,–
"CCCCCOc1ccc(CC(CN)c2ccc(OC)c(OC)c2)cc1 (stereo not drawn) [Example 15, 4-(Pentyloxy)-β-3,4-(dimethoxy)phenylbenzenepropanamine]",80,21,30,–
"CCCCCCCCOc1ccc(CC(CN)c2ccc(OC)c(OC)c2)cc1 (stereo not drawn) [Example 17, 4-(Octyloxy)-β-(3,4-dimethoxy)phenylbezenenepropanamine hydrochloride]",240,48,81,plasma prothrombin time [4]: 21 s
"CCCCCCCCOc1ccc(CC(CN)c2cc(OC)c(OC)c(OC)c2)cc1 (stereo not drawn) [Example 18, 4-(Octyloxy)-β-(3,4,5-trimethoxy)phenylbenzenepropanamine hydrochloride]",125,–,–,–
"CCCCCOc1ccc(CC(CN)c2ccc(OC)c(OC)c2OC)cc1 (stereo not drawn) [Example 19, 4-(Pentyloxy)-β-(2,3,4-trimethoxy)phenylbenzenepropanamine hydrochloride]",174,–,–,–
"CCCCCCCOc1ccc(CC(CN)c2ccc(OC)c(OC)c2)cc1 (stereo not drawn) [Example 20, 4-(Heptyloxy)-β-(3,4-dimethoxy)phenylbenzenepropanamine]",> 200,36,74,–
"COc1ccc(C(CN)Cc2ccc(OC)c3ccccc23)cc1OC (stereo not drawn) [Example 23, β(3,4-Dimethoxy)phenyl-1-(4-methoxy)naphthalenepropanamine hydrochloride]",101,–,–,–
"COc1ccc(C(CN)Cc2cccc3ccccc23)cc1 (stereo not drawn) [Example 24, β-(4-Methoxy)phenyl-1-naphthalenepropanamine]",48,22,28,–
"COc1cccc(C(CN)Cc2ccc3ccccc3c2)c1OC (stereo not drawn) [Example 25, β-(2,3-Dimethoxyphenyl)-2-naphthalenepropanamine]",50,22,29,–

SMILES,plasma prothrombin time [1] [s],plasma prothrombin time [2] [s],plasma prothrombin time [3] [s],other results
"CCCCCCOc1ccc(CC(CNCC)c2ccccc2)cc1 (stereo not drawn) [Example 28, N-Ethyl-4-(hexyloxy)-β-phenylbenzenepropanamine]",110,23,35,plasma prothrombin time [4]: 17 s
"CCCCCCOc1ccc(CC(CNC)c2ccccc2)cc1 (stereo not drawn) [Example 29, N-Methyl-4-(hexyloxy)-β-phenylbenzenepropanamine]",87,17,31,–
"CCCCCCOc1ccc(CC(CNC(C)C)c2ccccc2)cc1.Cl (stereo not drawn) [Example 30, N-Isopropyl-4-(hexyloxy)-β-phenylbenzenepropanamine hydrochloride]",69,–,–,–
"CCCCCCOc1ccc(CC(CNCCN(C)C)c2cc(OC)c(OC)c(OC)c2)cc1.Cl.Cl (stereo not drawn) [Example 31, N'-[3-[4-(Hexyloxy)phenyl]-2-(3,4,5-trimethoxyphenyl)-propyl]-N,N-dimethyl-1,2-ethanediamine dihydrochloride]",150,–,–,–
"Cl.NCC(Cc1ccc2c(c1)OCO2)c1ccc(-c2ccccc2)cc1 (stereo not drawn) [Example 32, β-[1,1'-Biphenyl]-4-yl-1,3-benzodioxole-5-propanamine hydrochloride]",222,27,66,–
"CNCC(Cc1ccc2c(c1)OCO2)c1ccccc1.Cl (stereo not drawn) [Example 33, N-Methyl-β-phenyl-1,3-benzodioxole-5-propanamine hydrochloride]",18,–,–,–
"Cl.NCC(Cc1ccc2c(c1)OCO2)c1ccccc1 (stereo not drawn) [Example 34, β-Phenyl-1,3-benzodioxole-5-propanamine hydrochloride]",21,–,–,–
"NCC(Cc1ccc(C(F)(F)F)cc1)c1ccccc1 (stereo not drawn) [Example 35, β-Phenyl-4-(trifluoromethyl)benzenepropanamine]",68,–,–,–
"NC(CCc1ccc(OCC2CCCCC2)cc1)C1CC1 (stereo not drawn) [Example 37, 4-(Cyclohexylmethoxy)-α-cyclopropylbenzenepropanamine hydrochloride]",–,–,–,plasma prothrombin time [5]: 22 s
"CCC(CCc1ccc(OCC2CCCCC2)cc1)N(C)C (stereo not drawn) [Example 38, 4-(Cyclohexylmethoxy)-α-ethyl-N,N-dimethylbenzenepropanamine hydrochloride]",–,–,–,plasma prothrombin time [5]: 22 s
"CCCCCCCOc1ccc(CCC(C)NCCN(C)C)cc1 (stereo not drawn) [Example 49, N'-[3-[4-(Heptyloxy)phenyl]-1-methylpropyl]-N,N-dimethyl-1,2-ethanediamine dihydrochloride]",260,36,167,plasma prothrombin time [5]: 22 s; plasma prothrombin time [4]: 34 s
"CCCCCCCCCCOc1ccc(CCC(C)N)cc1 (stereo not drawn) [Example 50, 4-(Decyloxy)-α-methylbenzenepropanamine hydrochloride]",100,21,36,–
"CCCCCCCOc1ccc(CCC(C)N)cc1 (stereo not drawn) [Example 51, 4-(Heptyloxy)-α-methylbenzenepropanamine hydrochloride]",> 300,25,52,–
"CCCCCCCCCCCCOc1ccc(CCC(C)NCCN(C)C)cc1 (stereo not drawn) [Example 52, N'-[3-[4-(Dodecyloxy)phenyl]-1-methylpropyl]-N,N-dimethyl-1,2-ethanediaminedihydrochloride]",87,–,20,–
"CCCCCCCCCOc1ccc(CCC(C)NCCN2CCOCC2)cc1 (stereo not drawn) [Example 53, N-[1-Methyl-3-[4-(nonyloxy)phenyl]propyl]-4-morpholineethanamine dihydrochloride]",240,23,53,–
"CCCCCCCCCOc1ccc(CCC(C)NCCN(C)C)cc1 (stereo not drawn) [Example 54, N,N-Dimethyl-N'-[1-methyl-3-[4-(nonyloxy)phenyl]propyl]-1,2-ethanediamine dihydrochloride]",> 300,37,99,–
"CC(CCc1ccc(OCCC(C)(C)C)cc1)N(C)C.Cl (stereo not drawn) [Example 75, 4-(3,3-Dimethylbutoxy)-N,N,αtrimethylbenzenepropanamine hydrochloride]",90,–,–,"plasma prothrombin time (11 micrograms per milliliter of plasma, hydrochloride): 18 s; plasma prothrombin time (22 micrograms per milliliter of plasma, hydrochloride): 23 s; plasma prothrombin time (45 micrograms per milliliter of plasma, hydrochloride): 32 s; plasma prothrombin time (90 micrograms per milliliter of plasma, hydrochloride): 52 s"
